Experimental data reported in PMC11714206, “Massively Parallel Screening of Toll/Interleukin‐1 Receptor (TIR)‐Derived Peptides Reveals Multiple Toll‐Like Receptors (TLRs)‐Targeting Immunomodulatory Peptides” (Advanced Science, 2024).
Blank lines part the entries; values can stand above or below the sequence they belong to.

Target: T1, MyD88^TIR (Homo sapiens, UniProt Q99836)
T1 construct: MyD88 (residues 148–296); 6xHis; made in house; host or cells: E. coli BL21 (DE3)
Assay: T‐Surf phage library (P8 and P3) selection against MyD88^TIR, four rounds, NGS read counts
Type: binding
Settings: for P3_MyD88 Rank (after) / P3_MyD88 Rank (before): P3 library; for Population: 4th round of selection against MyD88 TIR, share of NGS reads; for P8_MyD88 Rank (after) / P8_MyD88 Rank (before): P8 library
Method in brief: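 Read counts come from NGS of phage pools after the fourth selection round, barcoded by 20-cycle PCR and filtered for quality ≥30. Each round: phage incubated 1 h at RT on immobilised TIR protein (5 µg mL^−1, BSA-blocked), washed, HCl-eluted and amplified in E. coli TG1.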

[1] = P3_MyD88: rank by count after grouping
[2] = P3_MyD88: rank by count before grouping
[3] = 4R selection against MyD88, rank after grouping
[4] = 4R selection against MyD88, rank before grouping
[5] = selection against MyD88 TIR, rank by count after grouping
[6] = selection against MyD88 TIR, rank by count before grouping
[7] = selection against MyD88, rank after grouping
[8] = selection against MyD88, rank before grouping
[9] = P8_MyD88: rank by count after grouping
[10] = P8_MyD88: rank by count before grouping
[11] = P8_MyD88 pool: P8 T-Surf phage library
[12] = P8_MyD88: rank by NGS read count after grouping
[13] = P8_MyD88: rank by NGS read count before grouping
[14] = P3_MyD88 pool: P3 T-Surf phage library
[15] = selection against MyD88, rank by count after grouping
[16] = selection against MyD88, rank by count before grouping

T1 sequence (Q99836 148-296): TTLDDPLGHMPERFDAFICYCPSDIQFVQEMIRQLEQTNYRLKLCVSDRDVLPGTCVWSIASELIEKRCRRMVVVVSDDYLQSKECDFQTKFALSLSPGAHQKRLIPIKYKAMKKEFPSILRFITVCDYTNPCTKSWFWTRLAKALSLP

Rank (after) [1]: 477
Rank (before) [2]: 2457
Sequence: LKWEGPYFWRKMRYAL

P3_MyD88 Rank (after) [3]: 632
P3_MyD88 Rank (before) [4]: 2128
Sequence: EWILSKLSQHILKREK

P3_MyD88 Rank (after) [5]: 199
P3_MyD88 Rank (before) [6]: 3151
Sequence: SSFREGLWRLLEVSQK

Rank (after) [1]: 172
Rank (before) [2]: 912
Sequence: GFLYQAFAREGLWRLLELSKK

P3_MyD88 Rank (after) [7]: 519
P3_MyD88 Rank (before) [8]: 2979
Sequence: SENYATSPWALDELLIAIEE

P3_MyD88 Rank (after) [3]: 673
P3_MyD88 Rank (before) [4]: 2999
Sequence: SENYATRPWAPDELVL

Rank (after) [9]: 126
Rank (before) [10]: 137
Population [11]: 0.0123%
Sequence: SFTDHLYAALVQAGIL

Rank (after) [12]: 1018
Rank (before) [13]: 2248
Sequence: VQWDDSWFWEKLLYA

Rank (after) [9]: 474
Rank (before) [10]: 2164
Sequence: VANILGYHWIAREHFV

Population [14]: 0.00466%
Sequence: KNLLNELVSKNIRTFM

P3_MyD88 Rank (after) [7]: 525
P3_MyD88 Rank (before) [8]: 1994
Sequence: DHHLALPRGKASKPEHLG

Rank (after) [12]: 992
Rank (before) [13]: 3275
Sequence: LGYHWIDWEYYVGIEN

Rank (after) [1]: 430
Rank (before) [2]: 1896
Sequence: AVDKGIDKIQTPLKNA

P8_MyD88 Rank (after) [5]: 252
P8_MyD88 Rank (before) [6]: 421
Sequence: FHGDELRDNFIRYLVW

P3_MyD88 Rank (after) [3]: 607
P3_MyD88 Rank (before) [4]: 3259
Sequence: SSCREGLWRLLELIKK

Rank (after) [12]: 1009
Rank (before) [13]: 3148
Sequence: EPQDLDWLYERLVSLF

P3_MyD88 Rank (after) [3]: 669
P3_MyD88 Rank (before) [4]: 1819
Sequence: GFREGLWRLLELSKK

P3_MyD88 Rank (after) [3]: 586
P3_MyD88 Rank (before) [4]: 2127
Sequence: EWIWDKLIYALSRNPH

P3_MyD88 Rank (after) [7]: 482
P3_MyD88 Rank (before) [8]: 2062
Sequence: DHQLDLPRCKAIKPEILG

P8_MyD88 Rank (after) [3]: 654
P8_MyD88 Rank (before) [4]: 3075
Sequence: DSFFWDRLLYILHVTE

P8_MyD88 Rank (after) [7]: 555
P8_MyD88 Rank (before) [8]: 1569
Sequence: WDFCEQYGTVLGSSVL

P3_MyD88 Rank (after) [5]: 191
P3_MyD88 Rank (before) [6]: 3251
Sequence: SSFSEGLWRLLELRKK

P3_MyD88 Rank (after) [7]: 493
P3_MyD88 Rank (before) [8]: 3227
Sequence: SSFRERLWRPVALSKK

Rank (after) [1]: 163
Rank (before) [2]: 967
Sequence: DSHESEIIKEIVDTIV

Rank (after) [9]: 441
Rank (before) [10]: 2722
Sequence: DPQDLGWFYERLLSLF

P8_MyD88 Rank (after) [7]: 539
P8_MyD88 Rank (before) [8]: 3634
Sequence: IDDDHLTYLVRLLLSLL

Rank (after) [9]: 438
Rank (before) [10]: 2970
Sequence: DPQDQEWFYERLFSHV

Rank (after) [1]: 420
Rank (before) [2]: 3407
Sequence: NELVHVWCCKANSQAG

Rank (after) [12]: 1022
Rank (before) [13]: 1842
Sequence: YASRSWYLDELVHIPW

P8_MyD88 Rank (after) [7]: 573
P8_MyD88 Rank (before) [8]: 3354
Sequence: LGYKRIDWEYFVGIED

P3_MyD88 Rank (after) [7]: 528
P3_MyD88 Rank (before) [8]: 3131
Sequence: SSFRGGLWRLLELRKE

P8_MyD88 Rank (after) [5]: 220
P8_MyD88 Rank (before) [6]: 377
Sequence: WALIELRTIMELWSGN

P8_MyD88 Rank (after) [15]: 769
P8_MyD88 Rank (before) [16]: 3687
Sequence: MEANSSRIWHRLLYSV

Rank (after) [9]: 429
Rank (before) [10]: 3305
Sequence: LGYHWTDWEYFVGIEA

P3_MyD88 Rank (after) [7]: 561
P3_MyD88 Rank (before) [8]: 2317
Sequence: LVAQEISKIKTMLATT

P3_MyD88 Rank (after) [5]: 278
P3_MyD88 Rank (before) [6]: 2986
Sequence: SENYATSPWALTELVH

P3_MyD88 Rank (after) [5]: 193
P3_MyD88 Rank (before) [6]: 1554
Sequence: YALTGHKHRYMVQRGV

P3_MyD88 Rank (after) [5]: 195
P3_MyD88 Rank (before) [6]: 1127
Sequence: PSEVRNRPAAWRKRL

Rank (after) [9]: 445
Rank (before) [10]: 1549
Sequence: WALNELQQILHARELF

Rank (after) [9]: 167
Rank (before) [10]: 193
Population [11]: 0.00617%
Sequence: YASSSWALDELWNIF

Rank (after) [9]: 388
Rank (before) [10]: 1856
Sequence: YASSSWYLDALVQILHARELF

P8_MyD88 Rank (after) [5]: 276
P8_MyD88 Rank (before) [6]: 1965
Sequence: YLLLGVFQTIFARRTA

P8_MyD88 Rank (after) [5]: 237
P8_MyD88 Rank (before) [6]: 416
Sequence: LRYDDPWFWEKLVFAM

P3_MyD88 Rank (after) [7]: 564
P3_MyD88 Rank (before) [8]: 2395
Sequence: LSRVTSVHDARGLGGI

Rank (after) [1]: 137
Rank (before) [2]: 2407
Sequence: LKCGEPYFWSKLRYAM

Rank (after) [9]: 166
Rank (before) [10]: 185
Population [11]: 0.00694%
Sequence: DSDPGSDLLIKIWAAL

P3_MyD88 Rank (after) [7]: 534
P3_MyD88 Rank (before) [8]: 3122
Sequence: SSFLQGLWRLLELSKK

Population [14]: 0.00466%
Sequence: LVAHEISKKMKIFETI

Rank (after) [1]: 402
Rank (before) [2]: 3260
Sequence: SSCREGLWRLLELSNK

P8_MyD88 Rank (after) [15]: 723
P8_MyD88 Rank (before) [16]: 1412
Sequence: WALDVLLQFLHARELF
